Experimental data from the NIST ThermoML archive (doi:10.1021/je700265d).
Values joined by “and” are separate entries in the source; they are usually repeats but may differ in a detail not shown here. Equal entries are not always repeated.

Assay: mn = molality of the nth substance listed, in mol/kg
Details: Liquid, Vibrating tube method

[Na+].[OH-] [sodium hydroxide] + O
mass density
Details	2000 kPa	10000 kPa
323.15 K, m1 = 0.09892	993.08 kg/m3 [middle of 4 runs]	–
323.15 K, m1 = 0.1004	–	996.538 kg/m3 and 996.527 kg/m3
323.15 K, m1 = 0.1011	–	996.561 kg/m3 and 996.552 kg/m3
323.15 K, m1 = 0.1999	997.265 kg/m3	–
323.15 K, m1 = 0.2008	–	1000.68 kg/m3 and 1000.69 kg/m3
323.15 K, m1 = 0.4993	–	1012.82 kg/m3
323.15 K, m1 = 0.4998	1009.52 kg/m3 and 1009.53 kg/m3	–
323.15 K, m1 = 1.002	–	1032.59 kg/m3
323.15 K, m1 = 1.006	1029.58 kg/m3 and 1029.59 kg/m3	–
323.15 K, m1 = 1.998	–	1069.82 kg/m3
323.15 K, m1 = 2.006	1067.14 kg/m3	–
323.15 K, m1 = 2.994	1102.23 kg/m3 and 1102.25 kg/m3	–
323.15 K, m1 = 2.999	–	1104.9 kg/m3
323.15 K, m1 = 4	1135.56 kg/m3 and 1135.59 kg/m3	1137.82 kg/m3
323.15 K, m1 = 4.927	1164.37 kg/m3 and 1164.36 kg/m3	–
323.15 K, m1 = 5.002	–	1168.71 kg/m3
323.15 K, m1 = 5.963	1194.98 kg/m3	–
323.15 K, m1 = 5.984	–	1197.21 kg/m3
323.15 K, m1 = 6.887	1219.57 kg/m3	–
323.15 K, m1 = 6.998	–	1224.73 kg/m3
323.15 K, m1 = 8	1248.12 kg/m3	–
323.15 K, m1 = 8.191	–	1254.93 kg/m3
373.15 K, m1 = 0.1071	–	967.434 kg/m3 and 967.432 kg/m3
373.15 K, m1 = 0.2063	–	971.522 kg/m3
373.15 K, m1 = 0.5006	–	983.362 kg/m3
373.15 K, m1 = 1.007	–	1003.1 kg/m3
373.15 K, m1 = 1.998	–	1039.6 kg/m3
373.15 K, m1 = 3	–	1074.35 kg/m3
373.15 K, m1 = 3.968	–	1105.88 kg/m3
373.15 K, m1 = 4.987	–	1137.02 kg/m3
373.15 K, m1 = 5.995	–	1165.76 kg/m3
373.15 K, m1 = 7	–	1192.66 kg/m3 and 1192.78 kg/m3
373.15 K, m1 = 8.191	–	1222.53 kg/m3
423.15 K, m1 = 0.102	–	926.887 kg/m3 and 926.893 kg/m3
423.15 K, m1 = 0.2019	–	931.217 kg/m3
423.15 K, m1 = 0.4993	–	943.749 kg/m3
423.15 K, m1 = 1.004	–	964.154 kg/m3
423.15 K, m1 = 2.002	–	1002.15 kg/m3
423.15 K, m1 = 3.005	–	1037.71 kg/m3
423.15 K, m1 = 4.007	–	1070.87 kg/m3
423.15 K, m1 = 5.013	–	1101.94 kg/m3 and 1102 kg/m3
423.15 K, m1 = 5.983	–	1129.99 kg/m3
423.15 K, m1 = 6.994	–	1157.33 kg/m3
423.15 K, m1 = 7.997	–	1182.78 kg/m3
473.15 K, m1 = 0.1008	–	875.988 kg/m3 and 876.005 kg/m3 and 876.003 kg/m3
473.15 K, m1 = 0.1998	–	880.725 kg/m3
473.15 K, m1 = 0.498	–	894.456 kg/m3 and 894.426 kg/m3
473.15 K, m1 = 1	–	916.262 kg/m3
473.15 K, m1 = 1.996	–	956.424 kg/m3 and 956.451 kg/m3
473.15 K, m1 = 3.001	–	993.727 kg/m3
473.15 K, m1 = 3.979	–	1027.36 kg/m3
473.15 K, m1 = 4.99	–	1059.7 kg/m3
473.15 K, m1 = 5.981	–	1089.06 kg/m3
473.15 K, m1 = 6.966	–	1116.25 kg/m3 and 1116.27 kg/m3
473.15 K, m1 = 7.982	–	1142.4 kg/m3
523.15 K, m1 = 0.1	–	811.722 kg/m3 and 811.711 kg/m3
523.15 K, m1 = 0.2004	–	817.364 kg/m3
523.15 K, m1 = 0.4995	–	833.124 kg/m3 and 833.104 kg/m3
523.15 K, m1 = 1.002	–	857.633 kg/m3 and 857.68 kg/m3
523.15 K, m1 = 2.005	–	902.001 kg/m3
523.15 K, m1 = 3.005	–	942.171 kg/m3
523.15 K, m1 = 3.999	–	977.951 kg/m3
523.15 K, m1 = 5.003	–	1011.55 kg/m3
523.15 K, m1 = 6.005	–	1042.56 kg/m3 and 1042.64 kg/m3
523.15 K, m1 = 7.002	–	1071.15 kg/m3 and 1071.04 kg/m3
523.15 K, m1 = 7.999	–	1097.71 kg/m3 and 1097.55 kg/m3
573.15 K, m1 = 0.1122	–	724.654 kg/m3 and 724.632 kg/m3
573.15 K, m1 = 0.2173	–	732.398 kg/m3 and 732.406 kg/m3
573.15 K, m1 = 0.5495	–	754.575 kg/m3 and 754.588 kg/m3
573.15 K, m1 = 1.105	–	787.201 kg/m3 and 787.19 kg/m3
573.15 K, m1 = 1.996	–	832.976 kg/m3 and 833.161 kg/m3
573.15 K, m1 = 3.004	–	878.767 kg/m3
573.15 K, m1 = 3.998	–	918.89 kg/m3
573.15 K, m1 = 4.999	–	955.585 kg/m3
573.15 K, m1 = 6.004	–	989.12 kg/m3
573.15 K, m1 = 6.999	–	1019.78 kg/m3
573.15 K, m1 = 7.997	–	1047.99 kg/m3
